Experiments:
[1] = target: human activated kallikrein enzyme (Homo sapiens, UniProt P03952); experiment: Inhibition of human activated plasma kallikrein, fluorogenic peptide substrate (PFR-AMC), 500 pM enzyme format; type: biochemical; details: 500 pM activated kallikrein, 30 min preincubation, 10 min reaction, room temperature, read-out: Primary Dose Response Assay: Average EC50
Protocol: Compounds were evaluated for inhibition of the human activated kallikrein enzyme in two formats of an assay employing a fluorogenic peptide substrate. In one assay format, the concentrations of reagents were as follows: 20 mM Tris pH 7.5, 1 mM EDTA, 150 mM sodium chloride, 0.1% PEG-400, 0.1% Triton X-100, 500 pM activated kallikrein enzyme, […] Pro-Phe-Arg-7-amido-4-methylcoumarin (PFR-AMC) substrate. Prior to reaction initiation with substrate, enzyme and inhibitors were preincubated for 30 min at room temperature. After initiation with substrate, reactions were incubated for 10 min at room temperature and fluorescence emission at 460 nm from 380 nm excitation measured with a microplate reader. In another assay format, the concentrations of reagents were as follows: 20 mM Tris pH 7.5, 1 mM EDTA, 150 mM sodium chloride, 0.1% PEG-400, 0.1% Triton X-100, 5 pM activated kallikrein enzyme, 300 uM PFR-AMC substrate. Prior to reaction initiation with substrate, enzyme and inhibitors were preincubated for 30 min at room temperature. After initiation with substrate, reactions were incubated for 18 hr at room temperature and fluorescence emission at 460 nm from 380 nm excitation measured with a microplate reader.

plasma kallikrein = target: T1, plasma kallikrein (Homo sapiens, UniProt P03952); experiment: Neat human plasma assay (fluorogenic peptide), contact pathway-activated plasma; type: biochemical; details: citrated human plasma, 10 nM human FXIIa activation, 100 μM PFR-AMC, room temperature; read-out: Human Plasma Assay: IC90
T1 construct: from tissue; host or cells: sodium citrate collected human plasma
Protocol: To analyze inhibition of plasma kallikrein in an ex vivo setting, the potency of compounds was measure in contact pathway-activated plasma assays. In a fluorogenic peptide substrate assay, test compounds dissolved in DMSO were added to sodium citrate collected human or rat plasma in a 96-well microplate. Alternatively, citrated plasma was collected from rats administered the compounds orally or by IV. 10 nM of human FXIIa (Enzyme Research Laboratories) diluted in PKa buffer (20 mM Tris-HCl, pH 7.5, 150 mM NaCl, 1 mM EDTA, 0.100 PEG-8000, and 0.1% Triton X-100) was added to the plasma, followed by the 100 μM of the profluorescent, synthetic plasma kallikrein substrate PFR-AMC (also diluted in PKa buffer). Final plasma concentration in the reaction was […]. Fluorescence was immediately monitored by excitation/emission wavelengths of 360 nm/480 nm respectively over a period of 5 minutes in a microplate reader. The resulting linear increase in fluorescence emission (reflecting PKa proteolysis of PFR-AMC substrate) was fit to extract a proteolytic rate (fluorescent units over time), and this rate was subsequently plotted against compound inhibitor concentration. Resulting plots were fit to a standard 4-parameter IC50/C90 equation to determine min/max values, IC50/90, and slope. All experimental steps were performed at room temperature.

Chain of human activated kallikrein enzyme (P03952 391-638 limits assumed): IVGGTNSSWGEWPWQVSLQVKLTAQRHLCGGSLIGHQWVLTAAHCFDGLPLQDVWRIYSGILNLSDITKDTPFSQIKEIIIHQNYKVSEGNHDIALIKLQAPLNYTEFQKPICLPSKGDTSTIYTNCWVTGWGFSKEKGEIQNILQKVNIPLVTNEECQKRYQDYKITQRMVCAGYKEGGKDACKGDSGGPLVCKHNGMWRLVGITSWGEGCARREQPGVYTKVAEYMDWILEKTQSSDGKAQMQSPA
Chain of human activated kallikrein enzyme (P03952 20-390 partner limits assumed): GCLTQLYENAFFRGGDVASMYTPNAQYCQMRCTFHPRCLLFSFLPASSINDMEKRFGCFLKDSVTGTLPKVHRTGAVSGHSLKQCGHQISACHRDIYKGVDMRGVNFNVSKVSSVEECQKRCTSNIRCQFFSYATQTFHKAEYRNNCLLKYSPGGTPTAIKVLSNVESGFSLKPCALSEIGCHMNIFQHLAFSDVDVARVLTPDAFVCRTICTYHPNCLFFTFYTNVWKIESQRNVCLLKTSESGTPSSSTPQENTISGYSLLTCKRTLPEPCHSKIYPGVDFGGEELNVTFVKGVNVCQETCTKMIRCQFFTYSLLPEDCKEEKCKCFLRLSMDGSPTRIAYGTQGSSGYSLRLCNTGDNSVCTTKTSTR
T1 sequence (P03952 391-638 limits assumed): as the sequence (P03952 391-638 limits assumed) above
T1 sequence (P03952 20-390 partner limits assumed): as the sequence (P03952 20-390 partner limits assumed) above

Structure (SMILES) | EC50 [1] | IC90 (plasma kallikrein)
O=C(Nc1cc(NCc2cc3cc(C4CC4)cc(N4CCOC4=O)n3n2)ncn1)[C@H]1C[C@@H]1c1cc(Cl)ccn1 (racemic) [Example 56, rac-(1S*,2S*)-2-(4-chloropyridin-2-yl)-N-(6-(((5-cyclopropyl-7-(2-oxooxazolidin-3-yl)pyrazolo[1,5-a]pyridin-2-yl)methyl)amino)pyrimidin-4-yl)cyclopropane-1-carboxamide] | < 2.5 nM | 5 to 65 µM
CN1C(=O)CN(c2cc(C3CC3)cc3cc(CNc4cc(NC(=O)[C@H]5C[C@@H]5c5cc(Cl)ccn5)ncn4)nn23)C1=O (racemic) [Example 57, rac-(1S*,2S*)-2-(4-chloropyridin-2-yl)-N-(6-(((5-cyclopropyl-7-(3-methyl-2,4-dioxoimidazolidin-1-yl)pyrazolo[1,5-a]pyridin-2-yl)methyl)amino)pyrimidin-4-yl)cyclopropane-1-carboxamide] | < 2.5 nM | 0.5 to 5 µM
Cc1ccnc([C@H]2C[C@@H]2C(=O)Nc2cc(NCc3cn4cc(C5CC5)nc(N5CC(=O)N(C)C5=O)c4n3)ncn2)n1 (racemic) [Example 80, rac-(1S*,2S*)—N-(6-(((6-cyclopropyl-8-(3-methyl-2,4-dioxoimidazolidin-1-yl)imidazo[1,2-a]pyrazin-2-yl)methyl)amino)pyrimidin-4-yl)-2-(4-methylpyrimidin-2-yl)cyclopropane-1-carboxamide] | < 2.5 nM | < 0.5 µM
Cc1ccnc([C@H]2C[C@@H]2C(=O)Nc2ncc(F)c(NCc3cn4cc(C5CC5)nc(N5CC(=O)N(C)C5=O)c4n3)n2)n1 (racemic) [Example 84, rac-(1S*,2S*)—N-(4-(((6-cyclopropyl-8-(3-methyl-2,4-dioxoimidazolidin-1-yl)imidazo[1,2-a]pyrazin-2-yl)methyl)amino)-5-fluoropyrimidin-2-yl)-2-(4-methylpyrimidin-2-yl) cyclopropane-1-carboxamide] | < 2.5 nM | < 0.5 µM
Cc1ccnc([C@H]2C[C@@H]2C(=O)Nc2cc(N3C[C@@H](O)C[C@@H]3c3ccc(N4CC5CC5C4)nc3)ncn2)n1 (relative stereo) [Example 71, rac-(1S*,2S*)—N-(6-((2R^•,4S)-2-(6-(3-azabicyclo[3.1.0]hexan-3-yl)pyridin-3-yl)-4-hydroxypyrrolidin-1-yl)pyrimidin-4-yl)-2-(4-methylpyrimidin-2-yl)cyclopropane-1-carboxamide] | 2.5 to 25 nM | 0.5 to 5 µM
Cc1ccnc([C@H]2C[C@@H]2C(=O)Nc2nncc(N[C@H](C)c3cc4cc(C5CC5)cc(N5CC(=O)N(C)C5=O)n4n3)n2)n1 (single isomer, unassigned) [Example 102] | < 2.5 nM | < 0.5 µM
O=C(Nc1cc(N2C[C@@H](O)CC2c2ccc(N3CC4CC4C3)nc2)ncn1)[C@H]1C[C@@H]1c1cccc(Cl)c1 (stereo partly drawn) [Example 67, (S,2S)—N-(6-((4S)-2-(6-(3-azabicyclo[3.1.0]hexan-3-yl)pyridin-3-yl)-4-hydroxypyrrolidin-1-yl)pyrimidin-4-yl)-2-(3-chlorophenyl)cyclopropane-1-carboxamide] | 25 to 500 nM | 
Cc1ccnc([C@H]2C[C@@H]2C(=O)Nc2cc(NCc3cc(F)c4ncc(Cl)cc4c3)nc(C)n2)n1 [Example 91, (1S,2S)—N-(6-(((3-chloro-8-fluoroquinolin-6-yl)methyl)amino)-2-methylpyrimidin-4-yl)-2-(4-methylpyrimidin-2-yl)cyclopropane-1-carboxamide] | 2.5 to 25 nM | 
Cc1ccnc([C@H]2C[C@@H]2C(=O)Nc2cc(OCc3cc(F)c4ncc(Cl)cc4c3)cnn2)n1 [Example 92, (1S,2S)—N-(5-((3-chloro-8-fluoroquinolin-6-yl)methoxy)pyridazin-3-yl)-2-(4-methylpyrimidin-2-yl)cyclopropane-1-carboxamide] | 2.5 to 25 nM | 

The next lines start with the values.

EC50 [1] | IC90 (plasma kallikrein) | Structure (SMILES)
< 2.5 nM | 5 to 65 µM | N#Cc1ccc(Cl)cc1[C@H]1C[C@@H]1C(=O)Nc1cc(NCc2cn3cc(C4CC4)cnc3n2)ccn1 (racemic) [Example 22, rac-(1S*,2S*)-2-(5-chloro-2-cyanophenyl)-N-(4-(((6-cyclopropylimidazo[1,2-a]pyrimidin-2-yl)methyl)amino)pyridin-2-yl)cyclopropane-1-carboxamide]
< 2.5 nM | 5 to 65 µM | O=C(Nc1cc(NCc2nc3ncc(C4CC4)cn3n2)ccn1)[C@@H]1C[C@]12CCc1ccc(Cl)cc12 (racemic) [Example 41, rac-(1S*,2S*)-6′-chloro-N-(4-(((6-cyclopropyl-[1,2,4]triazolo[1,5-a]pyrimidin-2-yl)methyl)amino)pyridin-2-yl)-2′,3′-dihydrospiro[cyclopropane-1,1′-indene]-2-carboxamide]
< 2.5 nM | 0.5 to 5 µM | N#Cc1ccc(Cl)cc1[C@H]1C[C@@H]1C(=O)Nc1cc(NCc2nc3ncc(C4CC4)cn3n2)ccn1 (racemic) [Example 42, rac-(1S*,2S*)-2-(5-chloro-2-cyanophenyl)-N-(4-(((6-cyclopropyl-[1,2,4]triazolo[1,5-a]pyrimidin-2-yl)methyl)amino)pyridin-2-yl)cyclopropane-1-carboxamide]
< 2.5 nM | 0.5 to 5 µM | Cc1ccnc([C@H]2C[C@@H]2C(=O)Nc2nccc(NCc3cn4cc(C5CC5)cnc4n3)n2)n1 (racemic) [Example 77, rac-(1S*,2S*)—N-(4-(((6-cyclopropylimidazo[1,2-a]pyrimidin-2yl)methyl)amino)pyrimidin-2-yl)-2-(4-methylpyrimidin-2-yl)cyclopropane-1-carboxamide]
< 2.5 nM | 0.5 to 5 µM | Cc1ccnc([C@H]2C[C@@H]2C(=O)Nc2cc(N3C[C@@H](O)C[C@@H]3c3cn4cc(C5CC5)cnc4n3)ncn2)n1 (relative stereo) [Example 72, rac-(1S*,2S*)—N-(6-((2R,4S)-2-(6-cyclopropylimidazo[1,2-a]pyrimidin-2-yl)-4-hydroxypyrrolidin-1-yl)pyrimidin-4-yl)-2-(4-methylpyrimidin-2-yl)cyclopropane-1-carboxamide]
2.5 to 25 nM | 0.5 to 5 µM | Cc1ccnc([C@H]2C[C@@H]2C(=O)Nc2cc(N3C[C@@H](O)C[C@@H]3c3cn4cc(C5CC5)cnc4n3)ncn2)c1 (single isomer, unassigned) [Example 75, (1S*,2S*)—N-(6-((2R,4S)-2-(6-cyclopropylimidazo[1,2-a]pyrimidin-2-yl)-4-hydroxypyrrolidin-1-yl)pyrimidin-4-yl)-2-(4-methylpyridin-2-yl)cyclopropane-1-carboxamide]
< 2.5 nM | 5 to 65 µM | O=C(Nc1cc(NCc2cc3cc(C4CC4)cnc3s2)ccn1)[C@H]1C[C@@H]1c1cccc(Cl)c1 [Example 23, (1S,2S)-2-(3-chlorophenyl)-N-(4-(((5-cyclopropylthieno[2,3-b]pyridin-2-yl)methyl)amino)pyridin-2-yl)cyclopropane-1-carboxamide]
< 2.5 nM | 5 to 65 µM | O=C(Nc1cc(NCc2nc3ccc(C4CC4)cn3n2)ccn1)[C@H]1C[C@@H]1c1cccc(Cl)c1 [Example 25, (1S,2S)-2-(3-chlorophenyl)-N-(4-(((6-cyclopropyl-[1,2,4]triazolo[1,5-a]pyridin-2-yl)methyl)amino)pyridin-2-yl)cyclopropane-1-carboxamide]
2.5 to 25 nM | 5 to 65 µM | O=C(Nc1cc(NCc2nc3ccc(C4CC4)nn3n2)ccn1)[C@H]1C[C@@H]1c1cccc(Cl)c1 [Example 29, (1S,2S)-2-(3-chlorophenyl)-N-(4-(((6-cyclopropyl-[1,2,4]triazolo[1,5-b]pyridazin-2-yl)methyl)amino)pyridin-2-yl)cyclopropane-1-carboxamide]
< 2.5 nM | 0.5 to 5 µM | O=C(Nc1cc(NCc2nc3ncc(C4CC4)cn3n2)ccn1)[C@H]1C[C@@H]1c1cccc(Cl)c1 [Example 31, (1S,2S)-2-(3-chlorophenyl)-N-(4-(((6-cyclopropyl-[1,2,4]triazolo[1,5-a]pyrimidin-2-yl)methyl)amino)pyridin-2-yl)cyclopropane-1-carboxamide]
< 2.5 nM |  | O=C1CN(c2cc(C3CC3)cn3nc(CNc4cc(NC(=O)[C@H]5C[C@@H]5c5cc(Cl)ccn5)ncn4)nc23)C(=O)N1 [Example 68, (1S,2S)-2-(4-chloropyridin-2-yl)-N-(6-(((6-cyclopropyl-8-(2,4-dioxoimidazolidin-1-yl)-[1,2,4]triazolo[1,5-a]pyridin-2-yl)methyl)amino)pyrimidin-4-yl)cyclopropane-1-carboxamide]

— patent US20240226106A1, “INHIBITORS OF PLASMA KALLIKREIN” (SHIRE HUMAN GENETIC THERAPIES, INC., priority 2021, published 2024)
